In US20070275902A1, “Treatment of Phosphatidylinositol Phospholipid Disorders” (TRANSMOLECULAR, INC., priority 2003, published 2007):
“Also recorded” adds a separate entry of the source.

Assay: Binding to phosphatidylinositol beads (PIP beads), biotinylated peptide detected with streptavidin-HRP/TMB
Conditions: biotinylated peptide at final concentration of 100 μM, two hours at room temperature, absorbance 595 nm
Procedure: Sedimented suspensions of PIP beads™ were obtained from Molecular Probes. The beads are supplied as 10 nanomoles of bound phosphoinositide per milliliter of sedimented suspension. PIP beads were pelleted by centrifugation at low speed in a Beckman Coulter Microfuge. Pelleted beads were washed in wash-binding buffer (0.5% NP-40 in phosphate-buffered saline, 1 ml, 3×5 minutes) and centrifuged at low speed following each wash. After washing, pelleted beads were resuspended in an equal volume of Wash/Binding buffer. 100 μl of bead suspension was used for each binding reaction. Biotinylated chlorotoxin was diluted in wash-binding buffer, added to each phosphatidylinositol bead suspension at a final concentration of 100 μM and allowed to incubate for two hours at room temperature. Following incubation with chlorotoxin, the bead suspensions were washed in Wash/Binding buffer (1 ml, 3×5 minutes) and centrifuged at low speed after each wash. Streptavidin horseradish peroxidase (Vector Labs) was diluted 1:1000 in wash-binding buffer, 100 μl of this solution was added to each of the phosphatidylinositol bead suspensions, and allowed to incubate […] at room temperature. Following incubation with streptavidin, bead suspensions were washed thoroughly in Wash/Binding buffer (1 ml, 5×10 minutes) and centrifuged at low speed after each wash. Immediately prior to use, a 1:1 mixture of TMB substrate (Pierce) was prepared, 100 μl of this solution was added to each reaction, and allowed to incubate at room temperature for up to thirty minutes. After incubation with substrate, bead suspensions were pelleted by centrifugation, supernatants were transferred to a 96-well plate and absorbance (λ=595 nm) was obtained using BioRad microplate reader and microplate manager software.
In order to confirm the identify of the minimal binding sequences within the alpha and beta peptides, each of the two peptides was incubated with different species of phosphatidylinositols as set forth in Example 1.

Substance: KGRGKSY [beta-domain peptide]
- binding to different species of phosphatidylinositols: binds to multiple species of phosphatidylinositols; also recorded: bound to all of the same species of phosphatidylinositols as did chlorotoxin

Substance: TDHQMAR [alpha-domain peptide]
- binding to different species of phosphatidylinositols: no binding activity

Substance: chlorotoxin
- binding to different species of phosphatidylinositols: binding of chlorotoxin to different phosphatidylinositols
